Experimental data published in ChEMBL document CHEMBL1123973, “Renin inhibitors containing hydrophilic groups. Tetrapeptides with enhanced aqueous solubility and nanomolar potency” (J Med Chem, 1988).
≈ marks a conversion by molar mass, not a printed value. *1 amine or outer side, *2 acyl side, *3 side chain or, on linkers, in order; H or OH if unused. Where a SMILES comes first, the peptide text is derived from it. [ ]: non-standard residue; d: D form. The star is where a group is joined. ξ: configuration not given here. Sta = CC(C)C[C@H](N)[C@@H](O)CC(=O)O; X1 = CC(C)CC(N[*:1])C(O)CC(=O)[*:2]; ξPhg = NC(C(=O)O)c1ccccc1; Boc = CC(C)(C)OC(=O)*; NHBn = c1ccc(CN*)cc1

Legend:
[1] = Partition coefficient (logD) (octanol/citric acid-phosphate buffer)
[2] = buffer, pH 7.4
Description: Solubility (phosphate buffer, pH 7.4)

[3] = physchem; conditions: S
[4] = physchem; conditions: phosphate buffer, pH 7.4, S
Description: Solubility (phosphate buffer, pH 7.4)

[5] = species: Sus scrofa; assay: Concentration required for 50% inhibition of porcine kidney renin at 10e-6 (nM) concentration
[6] = system: Renin (Canis lupus familiaris); assay: Concentration required for 50% inhibition of renin; 10e-6 (nM)
[7] = target: T1, Renin (Homo sapiens, UniProt P00797); assay: Concentration required for 50% inhibition of human plasma renin; assay type: cell-free
T1 sequence (P00797 whole entry): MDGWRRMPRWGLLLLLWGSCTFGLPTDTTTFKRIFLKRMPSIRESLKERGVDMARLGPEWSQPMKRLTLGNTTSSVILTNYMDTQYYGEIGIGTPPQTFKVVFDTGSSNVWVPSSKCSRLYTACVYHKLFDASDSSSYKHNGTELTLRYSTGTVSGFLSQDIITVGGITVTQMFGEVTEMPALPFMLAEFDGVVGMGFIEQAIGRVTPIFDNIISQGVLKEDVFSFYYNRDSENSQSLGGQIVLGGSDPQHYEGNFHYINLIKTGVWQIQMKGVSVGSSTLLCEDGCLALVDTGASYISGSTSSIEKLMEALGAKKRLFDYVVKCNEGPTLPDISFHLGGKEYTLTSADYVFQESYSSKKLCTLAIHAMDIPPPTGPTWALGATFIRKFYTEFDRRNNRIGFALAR

[8] = target: Renin (Canis lupus familiaris); assay: Inhibition of renin
[9] = target: Renin (Sus scrofa); assay: Inhibition of porcine kidney renin
[10] = system: Renin (Canis lupus familiaris); assay: Concentration required for 50% inhibition of renin at 10e-6 M of the compound
[11] = species: Sus scrofa; assay: Concentration required for 50% inhibition of porcine kidney renin at 10e-7 nM concentration
[12] = system: Renin (Canis lupus familiaris); assay: Concentration required for 50% inhibition of renin at 10e-6 nM concentration
[13] = target: T2, Renin (Homo sapiens) (UniProt P00797); assay: Concentration required for 50% inhibition of human plasma renin at 10e-6 nM of the compound; assay type: cell-free
T2 sequence (whole entry): T1 sequence (P00797 whole entry)

[14] = species: Sus scrofa; assay: Concentration required for 50% inhibition of porcine kidney renin; assay type: functional
[15] = species: Sus scrofa; assay: Concentration required for 50% inhibition of porcine kidney renin at 10e-7 nM of the compound
[16] = species: Sus scrofa; assay: Concentration required for 50% inhibition of porcine kidney renin at 10e-7 (nM) concentration

Row | SMILES | logD [1] | solubility [3] | solubility [4] | also measured
1 | CC(C)CC(NC(=O)[C@H](Cc1c[nH]cn1)NC(=O)[C@H](Cc1ccccc1)NC(=O)OC(C)(C)C)C(O)CC(=O)N[C@@H](CC(C)C)C(=O)NCCC(N)C(=O)O (stereo in doubt; 17) [listing 1 of 2 here] | 1.03 | 3400 µM (≈ 2630 µg/mL) | – | S [2]: 1400 µM
2 | CC(C)CC(NC(=O)[C@H](Cc1cnc[nH]1)NC(=O)[C@H](Cc1ccccc1)NC(=O)OC(C)(C)C)C(O)CC(=O)N[C@@H](CC(C)C)C(=O)NCc1cccc(OCC(=O)O)c1 (some centres not stated) | > 2 | 270 µM (≈ 226 µg/mL) | 1800 µM (≈ 1500 µg/mL) | –
3 | CC(C)CC(NC(=O)[C@H](Cc1c[nH]cn1)NC(=O)[C@H](Cc1ccccc1)NC(=O)OC(C)(C)C)C(O)CC(=O)N[C@@H](CC(C)C)C(=O)NCC(N)c1ccccn1 (some centres not stated) | > 2 | 890 µM (≈ 705 µg/mL) | 400 µM (≈ 317 µg/mL) | –
4 | CC(C)CC(NC(=O)[C@H](Cc1c[nH]cn1)NC(=O)[C@H](Cc1ccccc1)NC(=O)OC(C)(C)C)C(O)CC(=O)N[C@@H](CC(C)C)C(=O)NCCN (some centres not stated) | – | – | – | inhibition [5]: 31%; inhibition [6]: 32%
5 | CC(C)C[C@H](NC(=O)C[C@H](O)[C@H](CC(C)C)NC(=O)[C@H](Cc1c[nH]cn1)NC(=O)[C@H](Cc1ccccc1)NC(=O)OC(C)(C)C)C(=O)NCc1ccccc1 (Boc-FH[Sta]L-NHBn) | > 2 | < 10 µM | < 10 µM | –
6 | CC(C)CC(NC(=O)[C@H](Cc1c[nH]cn1)NC(=O)[C@H](Cc1ccccc1)NC(=O)OC(C)(C)C)C(O)CC(=O)N[C@@H](CC(C)C)C(=O)NCc1ccccn1 (some centres not stated) | > 2 | 380 µM (≈ 290 µg/mL) | 180 µM (≈ 137 µg/mL) | –
7 | CC(C)CC(NC(=O)[C@H](Cc1c[nH]cn1)NC(=O)[C@H](Cc1ccccc1)NC(=O)OC(C)(C)C)C(O)CC(=O)N[C@@H](CC(C)C)C(=O)N1CCN(Cc2ccccc2)CC1 (some centres not stated) | > 2 | < 10 µM | < 10 µM | IC50 [7]: 127 nM; IC50 [8]: 310 nM; IC50 [9]: 280 nM
8 | CC(C)C[C@H](NC(=O)CC(O)C(CC1CCCCC1)NC(=O)[C@H](Cc1cnc[nH]1)NC(=O)[C@H](Cc1ccccc1)NC(=O)OC(C)(C)C)C(=O)NCc1ccncc1 (some centres not stated) | > 2 | – | < 10 µM | –
9 | CC(C)CC(NC(=O)[C@H](Cc1cnc[nH]1)NC(=O)[C@H](Cc1ccccc1)NC(=O)OC(C)(C)C)C(O)CC(=O)N[C@@H](CC(C)C)C(=O)NCc1cccc(CN=C(N)N)c1 (some centres not stated) | 1.03 | 3000 µM (≈ 2500 µg/mL) | 930 µM (≈ 775 µg/mL) | –
10 | CC(C)CC(NC(=O)[C@H](Cc1c[nH]cn1)NC(=O)[C@H](Cc1ccccc1)NC(=O)OC(C)(C)C)C(O)CC(=O)N[C@@H](CC(C)C)C(=O)NCCN=C(N)N (some centres not stated) | 0.322 | 24000 µM (≈ 18200 µg/mL) | 11000 µM (≈ 8330 µg/mL) | IC50 [7]: 64 nM; IC50 [9]: 710 nM; inhibition [10]: 32%
11 | CC(C)CC(NC(=O)[C@H](Cc1c[nH]cn1)NC(=O)[C@H](Cc1ccccc1)NC(=O)OC(C)(C)C)C(O)CC(=O)N[C@@H](CC(C)C)C(=O)NC(Cc1cccc(CN)c1)C(=O)O (some centres not stated) | 1.83 | 390 µM (≈ 331 µg/mL) | 1500 µM (≈ 1270 µg/mL) | inhibition [11]: 0%; IC50 [7]: 880 nM; inhibition [12]: 18%
12 | CC(C)CC(NC(=O)[C@H](Cc1c[nH]cn1)NC(=O)[C@H](Cc1ccccc1)NC(=O)OC(C)(C)C)C(O)CC(=O)N[C@@H](CC(C)C)C(=O)NCCC(N)C(=O)O (stereo in doubt; 17) [listing 2 of 2 here] | – | – | – | inhibition [5]: 0%; inhibition [13]: 8%; inhibition [6]: 22%
13 | CC(C)C[C@H](NC(=O)CC(O)C(CC1CCCCC1)NC(=O)[C@H](Cc1c[nH]cn1)NC(=O)[C@H](Cc1ccccc1)NC(=O)OC(C)(C)C)C(=O)NCc1cccc(CN=C(N)N)c1 (some centres not stated) | > 2 | > 250 µM | 40 µM (≈ 34.9 µg/mL) | –
14 | CC(C)CC(NC(=O)[C@H](Cc1cnc[nH]1)NC(=O)[C@H](Cc1ccccc1)NC(=O)OC(C)(C)C)C(O)CC(=O)N[C@@H](CC(C)C)C(=O)NCc1cccc(CN)c1 (some centres not stated) | 1.89 | 880 µM (≈ 696 µg/mL) | 1400 µM (≈ 1110 µg/mL) | IC50 [7]: 9 nM; IC50 [8]: 110 nM; IC50 [9]: 54 nM
15 | CC(C)CC(NC(=O)[C@H](Cc1c[nH]cn1)NC(=O)[C@H](Cc1ccccc1)NC(=O)OC(C)(C)C)C(O)CC(=O)N[C@@H](CC(C)C)C(=O)NCc1ccncc1 (some centres not stated) | > 2 | 440 µM (≈ 336 µg/mL) | 340 µM (≈ 259 µg/mL) | –
16 | CC(C)C[C@H](NC(=O)C[C@H](O)[C@H](CC(C)C)NC(=O)[C@H](Cc1c[nH]cn1)NC(=O)[C@H](Cc1ccccc1)NC(=O)OC(C)(C)C)C(=O)N[C@@H](Cc1ccccc1)C(N)=O (Boc-FH[Sta]LF-NH2) | > 2 | < 20 µM | < 20 µM | –
17 | CC(C)CC(NC(=O)[C@H](Cc1cnc[nH]1)NC(=O)[C@H](Cc1ccccc1)NC(=O)OC(C)(C)C)C(O)CC(=O)N[C@@H](CC(C)C)C(=O)NCCCN(CCO)CCO (some centres not stated) | 1.4 | 960 µM (≈ 784 µg/mL) | 4300 µM (≈ 3510 µg/mL) | IC50 [14]: 900 nM; IC50 [7]: 170 nM
18 | CC(C)C[C@H](NC(=O)CC(O)C(CC1CCCCC1)NC(=O)[C@H](Cc1cnc[nH]1)NC(=O)[C@H](Cc1ccccc1)NC(=O)OC(C)(C)C)C(=O)NCc1cccc(OCC(=O)O)c1 (some centres not stated) | > 2 | 30 µM (≈ 26.3 µg/mL) | 210 µM (≈ 184 µg/mL) | –
19 | CC(C)CC(NC(=O)[C@H](Cc1c[nH]cn1)NC(=O)[C@H](Cc1ccccc1)NC(=O)OC(C)(C)C)C(O)CC(=O)N[C@@H](CC(C)C)C(=O)NC(C(=O)O)c1ccccc1 (some centres not stated) (Boc-FH[X1]L[ξPhg]-OH) | 1.22 | 740 µM (≈ 596 µg/mL) | 2200 µM (≈ 1770 µg/mL) | inhibition [15]: 0%; inhibition [13]: 44%; inhibition [10]: 45%
20 | CC(C)CC(NC(=O)[C@H](Cc1cnc[nH]1)NC(=O)[C@H](Cc1ccccc1)NC(=O)OC(C)(C)C)C(O)CC(=O)N[C@@H](CC(C)C)C(=O)NCCN (some centres not stated) | 0.949 | 2600 µM (≈ 1860 µg/mL) | 4900 µM (≈ 3500 µg/mL) | IC50 [7]: 140 nM
21 | CC(C)CC(NC(=O)[C@H](Cc1c[nH]cn1)NC(=O)[C@H](Cc1ccccc1)NC(=O)OC(C)(C)C)C(O)CC(=O)N[C@@H](CC(C)C)C(=O)NCCC(N)C(=O)O (stereo in doubt; 16) | – | – | – | inhibition [15]: 0%; inhibition [13]: 25%; inhibition [10]: 15%
22 | CC(C)CC(NC(=O)[C@H](Cc1cnc[nH]1)NC(=O)[C@H](Cc1ccccc1)NC(=O)OC(C)(C)C)C(O)CC(=O)N[C@@H](CC(C)C)C(=O)NCc1cc[n+]([O-])cc1 (some centres not stated) | – | 6500 µM (≈ 5060 µg/mL) | 4200 µM (≈ 3270 µg/mL) | –
23 | CC(C)CC(NC(=O)[C@H](Cc1c[nH]cn1)NC(=O)[C@H](Cc1ccccc1)NC(=O)OC(C)(C)C)C(O)CC(=O)N[C@@H](CC(C)C)C(=O)NCc1cc[n+]([O-])cc1 (some centres not stated) | – | – | – | inhibition [16]: 29%
